In this experiment the test system is HT-29 cells. The experiment can be described thus: HT29 Cells 0FBS Assay In Vitro (TNF-α/SMAC mimetic/zVAD-FMK induced necroptosis, CellTiter-Glo cell viability). Type of experiment: cell-based. The settings on record: Homo sapiens, HT-29 cells, FBS free medium, TNF-α (10 ng/ml), SMAC mimetic (6 uM), zVAD-FMK (10 μM), 20 hours, geometric mean EC50. The text has this: Protocol for HT29 Cells 0FBS Assay In Vitro
• Cell line: HT-29 (ATCC® HTB-38™) • Culture medium: McCOY's 5 A, Gibco, Cat No. 16600-082 • FBS, Gibco, Cat No. 10099-141C • Trypsin: Gibco, Cat No. 25200-056 • DMSO: Sigma, Cat No. 67-68-5, 1 L • Assay plate: Corning #3903 • Compound dilution plate: Corning #3357 • Inducers: TNFα, GenScript, Cat No. ZO1001-50, • SmacM, Cat. No., HY-15989, MedChemExpress (MCE) • Z_VAD FMK, TargetMol, T6013 • Cell Titer-Glo® Luminescent Cell Viability Assay Kit: Promega, Cat No. G7573 • EnVision: PerkinElmer, 2105-0010 2. Cell Seeding of HT-29 Cells • 1) HT-29 cells were checked every day to make sure they are healthy and growing as expected. They were split sub-culturing when were approximately 80% confluent. • 2) First pre-warm the culture medium of McCOY's 5 A medium (Gibco, Cat No. 16600-082) with 10% FBS (Gibco, Cat No. 10099-141C) in 37° C. water bath for at least 30 min. • 3) Growing cells to desired level of confluency 80% in a T75 flask, aspirate the medium, and wash with warm PBS two times. • 4) Add 2-3 ml fresh warm trypsin (Gibco, Cat No. 25200-056) solution. Transfer the flask to a 37° C. incubator. • 5) After 5 minutes, tap the side of the flask, and examine the flask under a microscope for lifting. If necessary, return the cells to the incubator for an additional 5-10 minutes, with occasional tapping, until lifting is complete. • 6) Quickly neutralize the trypsin reaction by adding 6-9 ml cell culture medium, then transfer the cells to sterile 15 ml conical tubes. Pellet the cells by centrifugation at 300×g for 7 minutes, then decant the supernatant. • 7) Resuspend the cells in fresh cell culture medium. Do cell counting with hemocytometer. • 8) Seed 100 μl of 5,000 cells into each well of the sterile 96-well cell culture plate (Corning 3903) and culture overnight at 37° C. with 5% C02. 3. Compounds Titration and Treatment of HT-29 Cells • 1) All batches of compounds (CPDs) (e.g., compound 1-281) were dissolved in DMSO (Dimethyl sulfoxide) as 20 mM stock solution. • 2) Take 3 ul 20 mM stock solution of CPDs to 27 ul DMSO and mix well, continue the titration ratio of 1:3 (20 ul CPDs+40 ul DMSO), e.g., to give solutions of CPDS at 6.6 mM, 2.2 mM, etc., till the 10 points end. • 3) Take out assay plates with HT-29 cells from incubator, remove all culture medium then wash 1 time with 1×PBS, and change fresh McCOY's 5 A medium of FBS free with a cocktail of TNF-α (10 ng/ml), the SMAC mimetic (6 uM) and zVAD-FMK (10 μM) to stimulate the HT-29 cells to increase pRIPK1 levels and necroptosis. • 4) Add 0.5 μL of the diluted compound to the corresponding 96-well assay plates. • 5) Incubate the assay plates for 20 hours at 37° C. with 5% C02. 4. Performing Cell Viability Detection of HT-29 Cells after Treated with Compounds • 1) The CellTiter-Glo® Luminescent Cell Viability Assay was employed to detect the ATP levels of viable HT-29 cells. • 2) Equilibrate the CellTiter-Glo® buffer and the lyophilized substrate to room temperature prior to use. • 3) Resuspend the CellTiter-Glo® substrate with CellTiter-Glo® buffer, mix by gently vortexing to obtain a homogeneous solution. • 4) Pipette 20 μl the enzyme/substrate mixture by multi-channel pipette into the 96-well assay plates from step 5) under the Compounds titration and treatment stage. • 5) Place the plates on an orbital shaker and mix the contents for 3 minutes to induce cell lysis. • 6) Then allow the plates to incubate at room temperature for 10 minutes to stabilize luminescent signal. • 7) Read and record luminescence signal with EnVision. • 8) The geometric mean EC50 of the compounds were calculated from points response dose with duplicate. In Tables 2 and 4, activity is provided as follows: +++=0.1 nM≤EC50<100 nM; ++=100 nM≤EC50<1000 nM; +=1000 nM≤EC50<10000 nM.

[1] abbreviates: read-out: Cell activity (EC50) of Compounds 117-281.
[2] abbreviates: read-out: Cell activity (EC50) of Compounds 1-116.

Molecules are shown by their SMILES. Where two headings read alike, the source gives them in different places.

`Cc1onc(N)c1-c1cc(OC2CN(C(=O)N3N=CC[C@H]3c3cc(F)cc(F)c3)C2)c(F)cn1` [compound 228, (S)-(3-((2-(3-amino-5-methylisoxazol-4-yl)-5-fluoropyridin-4-yl)oxy)azetidin-1-yl)(5-(3,5-difluorophenyl)-4,5-dihydro-1H-pyrazol-1-yl)methanone]: under setting [1], the EC50 was 0.1 to 100 nM.
As for `CCc1nn(-c2cc(OC3CN(C(=O)N4N=CC[C@H]4c4cc(F)cc(F)c4)C3)c(F)cn2)c(C)c1C#N` [compound 124, (S)-1-(4-((1-(5-(3,5-difluorophenyl)-4,5-dihydro-1H-pyrazole-1-carbonyl)azetidin-3-yl)oxy)-5-fluoropyridin-2-yl)-3-ethyl-5-methyl-1H-pyrazole-4-carbonitrile], under setting [1], the EC50 lay in the range of 0.1 to 100 nM.
For `Cc1nn(C2COC2)c(C)c1-c1cc(OC2CN(C(=O)N3N=CC[C@H]3c3cc(F)cc(F)c3)C2)c(F)cn1` [compound 130, (S)-(5-(3,5-difluorophenyl)-4,5-dihydro-1H-pyrazol-1-yl)(3-((2-(3,5-dimethyl-1-(oxetan-3-yl)-1H-pyrazol-4-yl)-5-fluoropyridin-4-yl)oxy)azetidin-1-yl)methanone], the EC50 under setting [1] lay within 0.1 to 100 nM.
For `CC(C)NC(=O)c1cnn(C)c1-c1cc(OC2CN(C(=O)N3N=CC[C@H]3c3cc(F)cc(F)c3)C2)c(F)cn1` [compound 133, (S)-5-(4-((1-(5-(3,5-difluorophenyl)-4,5-dihydro-1H-pyrazole-1-carbonyl)azetidin-3-yl)oxy)-5-fluoropyridin-2-yl)-N-isopropyl-1-methyl-1H-pyrazole-4-carboxamide], the concentration for a half-maximal effect (EC50) under setting [1] lay in the range of 0.1 to 100 nM.
Turning to `Cn1ncc(F)c1-c1cc(OC2CN(C(=O)N3N=CC[C@H]3c3cc(F)cc(F)c3)C2)c(F)cn1` [compound 81, (S)-(5-(3,5-difluorophenyl)-4,5-dihydro-1H-pyrazol-1-yl)(3-((5-fluoro-2-(4-fluoro-1-methyl-1H-pyrazol-5-yl)pyridin-4-yl)oxy)azetidin-1-yl)methanone], under setting [2], the 50% effective concentration (EC50) is 0.1 to 100 nM.
As to `Cc1nocc1-c1ncc(F)c(OC2CN(C(=O)N3N=CC[C@H]3c3cc(F)cc(F)c3)C2)n1` [compound 22, (S)-(5-(3,5-difluorophenyl)-4,5-dihydro-1H-pyrazol-1-yl)(3-((5-fluoro-2-(3-methylisoxazol-4-yl)pyrimidin-4-yl)oxy)azetidin-1-yl)methanone], the half-maximal effective concentration (EC50) under setting [2] lay in the range of 0.1 to 100 nM.
As to `COCCOc1cnn(C)c1-c1cc(OC2CN(C(=O)N3N=CC[C@H]3c3cc(F)cc(F)c3)C2)c(F)cn1` [compound 52, (S)-(5-(3,5-difluorophenyl)-4,5-dihydro-1H-pyrazol-1-yl)(3-((5-fluoro-2-(4-(2-methoxyethoxy)-1-methyl-1H-pyrazol-5-yl)pyridin-4-yl)oxy)azetidin-1-yl)methanone], the concentration for a half-maximal effect (EC50) under setting [2] is 0.1 to 100 nM.
In the case of `Cc1ncsc1-c1cc(OC2CN(C(=O)N3N=CC[C@H]3c3cc(F)cc(F)c3)C2)c(F)cn1` [compound 11, (S)-(5-(3,5-difluorophenyl)-4,5-dihydro-1H-pyrazol-1-yl)(3-((5-fluoro-2-(4-methylthiazol-5-yl)pyridin-4-yl)oxy)azetidin-1-yl)methanone], the concentration for a half-maximal effect (EC50) under setting [2] lay within 0.1 to 100 nM.
Regarding `Cc1c(-c2cc(OC3CN(C(=O)N4N=CC[C@H]4c4cc(F)cc(F)c4)C3)c(F)cn2)nn(C)c1C1=NCCN1C` [compound 267, (S)-(5-(3,5-difluorophenyl)-4,5-dihydro-1H-pyrazol-1-yl)(3-((2-(1,4-dimethyl-5-(1-methyl-4,5-dihydro-1H-imidazol-2-yl)-1H-pyrazol-3-yl)-5-fluoropyridin-4-yl)oxy)azetidin-1-yl)methanone], the EC50 under setting [1] was 100 to 1000 nM.
Take `Cc1nn(-c2cc(OC3CN(C(=O)N4N=CC[C@H]4c4cc(F)cc(F)c4)C3)c(F)cn2)c(C)c1S(=O)(=O)NC1CCCCC1` [compound 242, (S)—N-cyclohexyl-1-(4-((1-(5-(3,5-difluorophenyl)-4,5-dihydro-1H-pyrazole-1-carbonyl)azetidin-3-yl)oxy)-5-fluoropyridin-2-yl)-3,5-dimethyl-1H-pyrazole-4-sulfonamide]: the EC50 under setting [1] was in the range of 0.1 to 100 nM.
In the case of `Cc1nn(-c2cc(OC3CN(C(=O)N4N=CC[C@H]4c4cc(F)cc(F)c4)C3)c(F)cn2)c(C)c1C(=O)NC1CCC1` [compound 249, (S)—N-cyclobutyl-1-(4-((1-(5-(3,5-difluorophenyl)-4,5-dihydro-1H-pyrazole-1-carbonyl)azetidin-3-yl)oxy)-5-fluoropyridin-2-yl)-3,5-dimethyl-1H-pyrazole-4-carboxamide], the EC50 under setting [1] fell in the range of 0.1 to 100 nM.
For the molecule `COC(=O)c1cc(C)n(-c2cc(OC3CN(C(=O)N4N=CC[C@H]4c4cc(F)cc(F)c4)C3)c(F)cn2)c1C` [compound 129, methyl (S)-1-(4-((1-(5-(3,5-difluorophenyl)-4,5-dihydro-1H-pyrazole-1-carbonyl)azetidin-3-yl)oxy)-5-fluoropyridin-2-yl)-2,5-dimethyl-1H-pyrrole-3-carboxylate], the 50% effective concentration (EC50) under setting [1] lay in the range of 0.1 to 100 nM.
In the case of `Cc1scnc1-c1cc(OC2CN(C(=O)N3N=CC[C@H]3c3cc(F)cc(F)c3)C2)c(F)cn1` [compound 14, (S)-(5-(3,5-difluorophenyl)-4,5-dihydro-1H-pyrazol-1-yl)(3-((5-fluoro-2-(5-methylthiazol-4-yl)pyridin-4-yl)oxy)azetidin-1-yl)methanone], the concentration for a half-maximal effect (EC50) under setting [2] fell in the range of 0.1 to 100 nM.
For the molecule `Cc1nnn(C)c1-c1cc(OC2CN(C(=O)N3N=CC[C@H]3c3cc(F)cc(F)c3)C2)c(F)cn1` [compound 47, (S)-(5-(3,5-difluorophenyl)-4,5-dihydro-1H-pyrazol-1-yl)(3-((2-(1,4-dimethyl-1H-1,2,3-triazol-5-yl)-5-fluoropyridin-4-yl)oxy)azetidin-1-yl)methanone], the EC50 under setting [2] lay in the range of 0.1 to 100 nM.
Take `Cn1ncc(Cl)c1-c1cc(OC2CN(C(=O)N3N=CC[C@H]3c3cc(F)cc(F)c3)C2)c(F)cn1` [compound 83, (S)-(3-((2-(4-chloro-1-methyl-1H-pyrazol-5-yl)-5-fluoropyridin-4-yl)oxy)azetidin-1-yl)(5-(3,5-difluorophenyl)-4,5-dihydro-1H-pyrazol-1-yl)methanone]: the EC50 under setting [2] lay within 0.1 to 100 nM.
Regarding `CC(C)NC(=O)Nc1cnn(C)c1-c1cc(OC2CN(C(=O)N3N=CC[C@H]3c3cc(F)cc(F)c3)C2)c(F)cn1` [compound 141, (S)-1-(5-(4-((1-(5-(3,5-difluorophenyl)-4,5-dihydro-1H-pyrazole-1-carbonyl)azetidin-3-yl)oxy)-5-fluoropyridin-2-yl)-1-methyl-1H-pyrazol-4-yl)-3-isopropylurea], the concentration giving a half-maximal response (EC50) under setting [1] lay in the range of 0.1 to 100 nM.
`Cc1nn(-c2cc(OC3CN(C(=O)N4N=CC[C@H]4c4cc(F)cc(F)c4)C3)c(F)cn2)c(C)c1C#N` [compound 151, (S)-1-(4-((1-(5-(3,5-difluorophenyl)-4,5-dihydro-1H-pyrazole-1-carbonyl)azetidin-3-yl)oxy)-5-fluoropyridin-2-yl)-3,5-dimethyl-1H-pyrazole-4-carbonitrile]: the EC50 under setting [1] fell in the range of 0.1 to 100 nM.

The values above are taken from patent US12655125B2 (SIRONAX LTD., priority 2020, dated 2026).
